Results published in patent US12257247B2 (Monte Rosa Therapeutics AG, priority 2023, dated 2025).
Read-outs that look alike come from different tables or passages of the source.

Biological target: T1, VAV1 (Homo sapiens, UniProt P15498+Q96SW2)
T1 construct: A heterozygous VAV1 C-terminal HiBiT knock-in pool was generated at Monte Rosa Therapeutics from a clonal Jurkat cell; endogenous in cells; host or cells: Jurkat clone stably expressing LgBiT, homozygous GSPT1-G575N; heterozygous VAV1-HiBiT knock-in pool
Assay: VAV1 degradation activity, VAV1-HiBiT knock-in Jurkat luminescence assay (Example A, Table 1)
Format: cell-based
Conditions: VAV1-HiBiT knock-in Jurkat cells, luminescence read at 6 and 24 hours; for Dmax: Jurkat
How it was run: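 Luminescence was measured at 6 and 24 h after adding compound (10 μM stock) to VAV1-HiBiT knock-in Jurkat cells, which had been pre-incubated ~16 h at 37° C. in RPMI/10% FBS containing Endurazine. EC50 values came from control-normalised responses fitted to a 3-parameter logistic model with hillslope fixed at 1.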

[1] = read-out: VAV1 DC50 (nM), class

| Dmax (read-out: VAV1 Dmax %) [%] | Dmax (read-out: VAV1 Dmax %, class) [%] | DC50 (read-out: VAV1 DC50) [nM] | DC50 [1] [nM] | Structure (SMILES) |
| --- | --- | --- | --- | --- |
| 80.2 | 60 to 90 | 113 | 100 to 1000 | CN1CCCN(Cc2ncc(-c3cccc(C4CCC(=O)NC4=O)c3Cl)cc2F)C1=O (stereo not drawn) [Compound 383, 3-(2-chloro-3-(5-fluoro-6-((3-methyl-2-oxotetrahydropyrimidin-1(2H)-yl)methyl)pyridin-3-yl)phenyl)piperidine-2,6-dione] |
| 75.5 | 60 to 90 | 122 | 100 to 1000 | O=C1CCC(c2cccc(-c3ccc(N4C(=O)CCC45CC5)nc3)c2Cl)C(=O)N1 (stereo not drawn) [Compound 384, 3-(2-chloro-3-(6-(5-oxo-4-azaspiro[2.4]heptan-4-yl)pyridin-3-yl)phenyl)piperidine-2,6-dione] |
| 97.8 | > 90 | 7 | ≤ 100 | O=C1CCC(c2cccc(-c3ccc(Cc4ncco4)c(F)c3)c2Cl)C(=O)N1 (stereo not drawn) [Compound 385, 3-(2-chloro-3′-fluoro-4′-(oxazol-2-ylmethyl)-[1,1′-biphenyl]-3-yl)piperidine-2,6-dione] |
| 29.2 | < 60 | ≥ 10000 | > 1000 | O=C1CCC(c2cccc(-c3ccc(N4CC5(COC5)CC4=O)cc3)c2Cl)C(=O)N1 (stereo not drawn) [Compound 386, 3-(2-chloro-4′-(7-oxo-2-oxa-6-azaspiro[3.4]octan-6-yl)-[1,1′-biphenyl]-3-yl)piperidine-2,6-dione] |
| 58.4 | < 60 | 865 | 100 to 1000 | CN1CCN(c2ccc(-c3cccc(C4CCC(=O)NC4=O)c3Cl)cc2)C1=O (stereo not drawn) [Compound 387, 3-(2-chloro-4′-(3-methyl-2-oxoimidazolidin-1-yl)-[1,1′-biphenyl]-3-yl)piperidine-2,6-dione] |
| 91 | > 90 | 16.2 | ≤ 100 | CN1CCN(Cc2ccc(-c3cccc(C4CCC(=O)NC4=O)c3Cl)cc2)C1=O (stereo not drawn) [Compound 388, 3-(2-chloro-4′-((3-methyl-2-oxoimidazolidin-1-yl)methyl)-[1,1′-biphenyl]-3-yl)piperidine-2,6-dione] |
| 88.5 | 60 to 90 | 41.4 | ≤ 100 | O=C1CCC(c2cccc(-c3ccc(N4C(=O)CCCC45CC5)nc3)c2Cl)C(=O)N1 (stereo not drawn) [Compound 389, 3-(2-chloro-3-(6-(5-oxo-4-azaspiro[2.5]octan-4-yl)pyridin-3-yl)phenyl)piperidine-2,6-dione] |
| 71.2 | 60 to 90 | 615 | 100 to 1000 | N#CC1(CN2C(=O)Cc3cc(-c4cccc(C5CCC(=O)NC5=O)c4Cl)ccc32)CC1 (stereo not drawn) [Compound 390, 1-((5-(2-chloro-3-(2,6-dioxopiperidin-3-yl)phenyl)-2-oxoindolin-1-yl)methyl)cyclopropane-1-carbonitrile] |
| 54 | < 60 | 5110 | > 1000 | COC1(CN2C(=O)Cc3cc(-c4cccc(C5CCC(=O)NC5=O)c4Cl)ccc32)CC1 (stereo not drawn) [Compound 391, 3-(2-chloro-3-(1-((1-methoxycyclopropyl)methyl)-2-oxoindolin-5-yl)phenyl)piperidine-2,6-dione] |
| 94.8 | > 90 | 12.8 | ≤ 100 | Cn1cnc(Cn2c(=O)oc3cc(-c4cccc(C5CCC(=O)NC5=O)c4Cl)ccc32)c1 (stereo not drawn) [Compound 392, 3-(2-chloro-3-(3-((1-methyl-1H-imidazol-4-yl)methyl)-2-oxo-2,3-dihydrobenzo[d]oxazol-6-yl)phenyl)piperidine-2,6-dione] |
| 86.7 | 60 to 90 | 29.3 | ≤ 100 | O=C1CCC(c2cccc(-c3ccc4c(c3)CC(=O)N4Cc3ncccn3)c2Cl)C(=O)N1 (stereo not drawn) [Compound 393, 3-(2-chloro-3-(2-oxo-1-(pyrimidin-2-ylmethyl)indolin-5-yl)phenyl)piperidine-2,6-dione] |
| 88.7 | 60 to 90 | 36.2 | ≤ 100 | O=C1CCC(c2cccc(-c3ccc(N4C(=O)CCC45CCC5)nc3)c2Cl)C(=O)N1 (stereo not drawn) [Compound 394, 3-(2-chloro-3-(6-(6-oxo-5-azaspiro[3.4]octan-5-yl)pyridin-3-yl)phenyl)piperidine-2,6-dione] |
| 83.9 | 60 to 90 | 55.7 | ≤ 100 | O=C1CCC(c2cccc(-c3ccc4c(c3)CC(=O)N4Cc3cccnn3)c2Cl)C(=O)N1 (stereo not drawn) [Compound 395, 3-(2-chloro-3-(2-oxo-1-(pyridazin-3-ylmethyl)indolin-5-yl)phenyl)piperidine-2,6-dione] |
| 96.9 | > 90 | 4.98 | ≤ 100 | O=C1CCC(c2cccc(-c3ccc4c(cnn4Cc4ncccn4)c3)c2Cl)C(=O)N1 (stereo not drawn) [Compound 396, 3-(2-chloro-3-(1-(pyrimidin-2-ylmethyl)-1H-indazol-5-yl)phenyl)piperidine-2,6-dione] |
| 99.1 | > 90 | 3.01 | ≤ 100 | Cn1cnc(Cn2ncc3cc(-c4cccc(C5CCC(=O)NC5=O)c4Cl)ccc32)c1 (stereo not drawn) [Compound 397, 3-(2-chloro-3-(1-((1-methyl-1H-imidazol-4-yl)methyl)-1H-indazol-5-yl)phenyl)piperidine-2,6-dione] |
| 81.5 | 60 to 90 | 77 | ≤ 100 | O=C1CCC(c2cccc(-c3ccc(Cc4ncccn4)nc3)c2Cl)C(=O)N1 (stereo not drawn) [Compound 400, 3-(2-chloro-3-(6-(pyrimidin-2-ylmethyl)pyridin-3-yl)phenyl)piperidine-2,6-dione] |
| 94.4 | > 90 | 15 | ≤ 100 | O=C1CCC(c2cccc(-c3ccc(Cc4ccncn4)cc3)c2Cl)C(=O)N1 (stereo not drawn) [Compound 401, 3-(2-chloro-4′-(pyrimidin-4-ylmethyl)-[1,1′-biphenyl]-3-yl)piperidine-2,6-dione] |
| 97.4 | > 90 | 5.3 | ≤ 100 | CC1(C)COCC(=O)N1c1ccc(-c2cccc(C3CCC(=O)NC3=O)c2Cl)cc1 (stereo not drawn) [Compound 402, 3-(2-chloro-4′-(3,3-dimethyl-5-oxomorpholino)-[1,1′-biphenyl]-3-yl)piperidine-2,6-dione] |
| 98.2 | > 90 | 3.26 | ≤ 100 | CC1(C)CCCC(=O)N1c1ccc(-c2cccc(C3CCC(=O)NC3=O)c2Cl)cc1 (stereo not drawn) [Compound 403, 3-(2-chloro-4′-(2,2-dimethyl-6-oxopiperidin-1-yl)-[1,1′-biphenyl]-3-yl)piperidine-2,6-dione] |
| 65.5 | 60 to 90 | 262 | 100 to 1000 | O=C1CCC(c2cccc(-c3ccc(CN4C(=O)CCCC45CC5)nc3)c2Cl)C(=O)N1 (stereo not drawn) [Compound 404, 3-(2-chloro-3-(6-((5-oxo-4-azaspiro[2.5]octan-4-yl)methyl)pyridin-3-yl)phenyl)piperidine-2,6-dione] |
| 76.3 | 60 to 90 | 383 | 100 to 1000 | O=C1CCC(c2cccc(-c3ccc(N4C(=O)CC45CCC5)cc3)c2Cl)C(=O)N1 (stereo not drawn) [Compound 405, 3-(2-chloro-4′-(2-oxo-1-azaspiro[3.3]-heptan-1-yl)-[1,1′-biphenyl]-3-yl)piperidine-2,6-dione] |
| 82.4 | 60 to 90 | 25.9 | ≤ 100 | CN1Cc2cccc(-c3ccc(-c4cccc(C5CCC(=O)NC5=O)c4Cl)cc3)c2S1(=O)=O (stereo not drawn) [Compound 406, 3-(2-chloro-4′-(2-methyl-1,1-dioxido-2,3-dihydrobenzo[d]isothiazol-7-yl)-[1,1′-biphenyl]-3-yl)piperidine-2,6-dione] |
| 95.5 | > 90 | 6.17 | ≤ 100 | O=C1CCC(c2cccc(-c3ccc(N4C(=O)CCCC45COC5)cc3)c2Cl)C(=O)N1 (stereo not drawn) [Compound 407, 3-(2-chloro-4′-(6-oxo-2-oxa-5-azaspiro[3.5]nonan-5-yl)-[1,1′-biphenyl]-3-yl)piperidine-2,6-dione] |
| 96 | > 90 | 30.8 | ≤ 100 | Cn1cnc(Cc2ccc(-c3cccc(C4CCC(=O)NC4=O)c3Cl)cc2)c1 (stereo not drawn) [Compound 408, 3-(2-chloro-4′-((1-methyl-1H-imidazol-4-yl)methyl)-[1,1′-biphenyl]-3-yl)piperidine-2,6-dione] |
| 95.2 | > 90 | 7.82 | ≤ 100 | CN1CCC[C@H](c2ccc(-c3cccc(C4CCC(=O)NC4=O)c3Cl)cc2)C1=O (stereo partly drawn) [Compound 409, 3-(2-chloro-4′-((R)-1-methyl-2-oxopiperidin-3-yl)-[1,1′-biphenyl]-3-yl)piperidine-2,6-dione] |
| 92.1 | > 90 | 17 | ≤ 100 | CN1CCC[C@@H](c2ccc(-c3cccc(C4CCC(=O)NC4=O)c3Cl)cc2)C1=O (stereo partly drawn) [Compound 410, 3-(2-chloro-4′-((S)-1-methyl-2-oxopiperidin-3-yl)-[1,1′-biphenyl]-3-yl)piperidine-2,6-dione] |
| 98.2 | > 90 | 1.99 | ≤ 100 | COCc1ccn(C)c(=O)c1-c1ccc(-c2cccc(C3CCC(=O)NC3=O)c2Cl)cc1 (stereo not drawn) [Compound 411, 3-(2-chloro-4′-(4-(methoxymethyl)-1-methyl-2-oxo-1,2-dihydropyridin-3-yl)-[1,1′-biphenyl]-3-yl)piperidine-2,6-dione] |
